The values that follow come from ChEMBL document CHEMBL1154758 (J Med Chem, 2010).

The target in assay [1] is T1, Carbonic anhydrase 15 (Mus musculus, UniProt Q99N23).
T1 sequence (Q99N23 whole entry): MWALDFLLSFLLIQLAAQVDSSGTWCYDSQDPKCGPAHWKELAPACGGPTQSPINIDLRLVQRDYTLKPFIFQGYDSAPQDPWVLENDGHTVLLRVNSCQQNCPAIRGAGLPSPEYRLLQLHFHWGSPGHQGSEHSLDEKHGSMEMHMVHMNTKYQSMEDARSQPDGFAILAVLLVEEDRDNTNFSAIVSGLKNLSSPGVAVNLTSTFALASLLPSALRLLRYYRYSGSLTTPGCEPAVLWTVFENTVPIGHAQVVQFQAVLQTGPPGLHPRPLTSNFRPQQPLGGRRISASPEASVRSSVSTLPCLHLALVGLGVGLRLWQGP

The target in assay [2] is Carbonic anhydrase 1 (Homo sapiens, UniProt P00915).
The target of assay [3] is Carbonic anhydrase 12 (Homo sapiens, UniProt O43570). Put plainly: Inhibition of human recombinant CA12 by stopped flow CO2 hydrase assay.
In assay [4] the target is Carbonic anhydrase 9 (Homo sapiens, UniProt Q16790).
Assay [5] deals with Carbonic anhydrase 5A, mitochondrial (Homo sapiens, UniProt P35218).
The target in assay [6] is Carbonic anhydrase 5B, mitochondrial (Homo sapiens, UniProt Q9Y2D0).
For assay [7], the target named is Carbonic anhydrase 14 (Homo sapiens, UniProt Q9ULX7).
The target of assay [8] is Carbonic anhydrase 7 (Homo sapiens, UniProt P43166). Briefly: Inhibition of human recombinant CA7 by stopped flow CO2 hydrase assay.
Assay [9] deals with Carbonic anhydrase 13 (Homo sapiens, UniProt Q8N1Q1).
For assay [10], the target named is Carbonic anhydrase 4 (Homo sapiens, UniProt P22748).
Assay [11] concerns the target Carbonic anhydrase 3 (Homo sapiens, UniProt P07451).
Assay [12] deals with Carbonic anhydrase 6 (Homo sapiens, UniProt P23280).
Carbonic anhydrase 6, sequence (P23280 whole entry): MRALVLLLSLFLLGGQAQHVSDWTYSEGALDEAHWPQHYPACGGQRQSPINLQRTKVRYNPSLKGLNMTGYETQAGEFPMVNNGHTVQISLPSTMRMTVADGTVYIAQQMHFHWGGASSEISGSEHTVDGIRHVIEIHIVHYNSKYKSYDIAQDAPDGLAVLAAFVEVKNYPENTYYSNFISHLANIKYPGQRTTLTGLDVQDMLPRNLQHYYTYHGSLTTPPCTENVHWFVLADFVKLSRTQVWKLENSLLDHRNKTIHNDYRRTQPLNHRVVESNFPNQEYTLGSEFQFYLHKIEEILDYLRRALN

Carbonic anhydrase 3, sequence (P07451 whole entry): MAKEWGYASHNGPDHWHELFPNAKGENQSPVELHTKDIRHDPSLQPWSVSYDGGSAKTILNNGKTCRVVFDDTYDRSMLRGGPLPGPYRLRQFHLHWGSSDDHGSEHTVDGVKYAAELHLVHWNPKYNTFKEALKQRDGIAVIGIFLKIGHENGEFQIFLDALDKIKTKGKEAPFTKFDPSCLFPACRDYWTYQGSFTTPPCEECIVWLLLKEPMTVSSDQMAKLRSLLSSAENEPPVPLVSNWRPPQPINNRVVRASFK
Carbonic anhydrase 13, sequence (Q8N1Q1 whole entry): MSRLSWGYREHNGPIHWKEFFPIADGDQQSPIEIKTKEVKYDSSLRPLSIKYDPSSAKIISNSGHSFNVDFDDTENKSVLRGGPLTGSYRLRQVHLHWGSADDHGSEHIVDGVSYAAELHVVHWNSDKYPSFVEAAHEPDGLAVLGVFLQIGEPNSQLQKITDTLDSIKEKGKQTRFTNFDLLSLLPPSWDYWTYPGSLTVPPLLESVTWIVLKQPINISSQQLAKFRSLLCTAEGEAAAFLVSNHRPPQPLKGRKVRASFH
Carbonic anhydrase 5B, mitochondrial, sequence (Q9Y2D0 whole entry): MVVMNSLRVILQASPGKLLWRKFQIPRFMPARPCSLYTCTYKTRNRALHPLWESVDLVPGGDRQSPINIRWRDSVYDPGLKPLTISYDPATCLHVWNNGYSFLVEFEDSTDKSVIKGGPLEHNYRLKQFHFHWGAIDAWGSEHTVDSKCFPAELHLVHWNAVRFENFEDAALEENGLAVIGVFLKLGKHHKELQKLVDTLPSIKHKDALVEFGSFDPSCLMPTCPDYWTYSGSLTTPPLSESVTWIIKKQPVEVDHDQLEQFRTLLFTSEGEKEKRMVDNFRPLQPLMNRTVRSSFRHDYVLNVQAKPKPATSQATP
Carbonic anhydrase 14, sequence (Q9ULX7 whole entry): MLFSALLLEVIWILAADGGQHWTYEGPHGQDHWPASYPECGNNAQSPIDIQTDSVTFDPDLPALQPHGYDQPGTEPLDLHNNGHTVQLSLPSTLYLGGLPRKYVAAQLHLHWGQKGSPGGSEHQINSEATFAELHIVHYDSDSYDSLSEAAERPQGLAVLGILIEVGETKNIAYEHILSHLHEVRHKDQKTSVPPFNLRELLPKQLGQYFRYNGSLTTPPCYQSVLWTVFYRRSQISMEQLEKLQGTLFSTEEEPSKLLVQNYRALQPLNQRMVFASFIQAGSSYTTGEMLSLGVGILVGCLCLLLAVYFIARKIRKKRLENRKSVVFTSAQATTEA
Carbonic anhydrase 4, sequence (P22748 whole entry): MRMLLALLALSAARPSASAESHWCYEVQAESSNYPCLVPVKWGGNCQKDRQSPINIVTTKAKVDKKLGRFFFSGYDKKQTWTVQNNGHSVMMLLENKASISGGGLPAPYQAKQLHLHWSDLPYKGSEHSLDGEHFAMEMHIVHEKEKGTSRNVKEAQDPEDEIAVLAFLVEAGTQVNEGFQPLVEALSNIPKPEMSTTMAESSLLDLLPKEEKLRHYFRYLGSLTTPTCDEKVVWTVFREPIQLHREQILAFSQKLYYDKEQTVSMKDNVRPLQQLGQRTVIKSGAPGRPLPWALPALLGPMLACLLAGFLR
Carbonic anhydrase 5A, mitochondrial, sequence (P35218 whole entry): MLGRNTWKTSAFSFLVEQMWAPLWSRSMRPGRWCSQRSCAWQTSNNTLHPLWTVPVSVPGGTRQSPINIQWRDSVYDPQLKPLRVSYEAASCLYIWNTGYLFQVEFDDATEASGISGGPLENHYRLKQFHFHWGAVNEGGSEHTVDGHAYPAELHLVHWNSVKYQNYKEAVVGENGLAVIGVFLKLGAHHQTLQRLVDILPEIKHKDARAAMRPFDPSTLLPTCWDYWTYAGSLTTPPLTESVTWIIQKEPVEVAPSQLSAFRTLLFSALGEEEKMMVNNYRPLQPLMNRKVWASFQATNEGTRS
Carbonic anhydrase 1, sequence (P00915 whole entry): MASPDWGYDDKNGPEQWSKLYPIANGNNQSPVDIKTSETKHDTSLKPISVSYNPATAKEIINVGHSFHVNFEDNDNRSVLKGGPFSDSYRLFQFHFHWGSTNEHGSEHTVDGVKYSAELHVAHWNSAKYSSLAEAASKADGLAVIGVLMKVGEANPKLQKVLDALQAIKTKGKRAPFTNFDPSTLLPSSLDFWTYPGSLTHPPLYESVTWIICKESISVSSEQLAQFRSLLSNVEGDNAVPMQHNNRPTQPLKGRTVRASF
Carbonic anhydrase 7, sequence (P43166 whole entry): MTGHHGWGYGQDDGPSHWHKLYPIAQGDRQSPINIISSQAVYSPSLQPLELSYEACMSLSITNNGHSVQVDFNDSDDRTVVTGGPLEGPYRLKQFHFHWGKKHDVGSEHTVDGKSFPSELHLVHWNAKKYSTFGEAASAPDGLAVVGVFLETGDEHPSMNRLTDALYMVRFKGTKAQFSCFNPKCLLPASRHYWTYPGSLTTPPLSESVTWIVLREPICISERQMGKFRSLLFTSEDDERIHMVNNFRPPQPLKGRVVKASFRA
Carbonic anhydrase 12, sequence (O43570 whole entry): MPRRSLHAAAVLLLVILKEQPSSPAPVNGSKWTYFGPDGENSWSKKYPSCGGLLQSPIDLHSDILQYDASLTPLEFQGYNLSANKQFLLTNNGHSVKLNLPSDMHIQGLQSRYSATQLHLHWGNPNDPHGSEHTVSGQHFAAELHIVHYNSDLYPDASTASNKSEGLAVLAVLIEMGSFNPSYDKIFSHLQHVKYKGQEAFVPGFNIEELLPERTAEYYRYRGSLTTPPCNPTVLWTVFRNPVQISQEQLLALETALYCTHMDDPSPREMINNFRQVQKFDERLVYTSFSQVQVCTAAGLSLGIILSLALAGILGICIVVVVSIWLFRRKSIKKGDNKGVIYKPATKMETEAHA

`COc1cc2oc(=O)ccc2cc1[C@@H](O)CC(C)C`: affinity in assay [1] was put at a Ki of 93100 nM.
As for `COC[C@@H](NC(C)=O)C(=O)NCc1ccccc1` [LACOSAMIDE], the Ki was found to be 362 nM in [2]; 3710 nM in [3]; 353 nM in assay [4]; 4570 nM in assay [5]; 341 nM in assay [6]; 473 nM in assay [7]. Besides, the inhibition constant Ki in assay [8] is 4450 nM; in assay [9], 1210 nM; in [10], 525 nM; in assay [1] it was 461 nM; in [11], 374 nM; in assay [12] it was 412 nM.
Turning to `Nc1ccc(S(N)(=O)=O)cc1` [SULFANILAMIDE], the inhibition constant Ki in assay [9] worked out at 32 nM; in assay [11], 988 nM.

The Ki is a measure of affinity in units of concentration, obtained from inhibition or displacement.
